As usually defined, the AC50 is the concentration at which the activity in the assay is half-maximal.

Activity calls are given as the source filed them. For most assays here, no stated cut-off is given here; in the data, actives have a measured EC50 and inactives only a lower limit.

Data on 30 compounds can be found in ChEMBL document CHEMBL1201862, “PubChem BioAssay data set” (2004).

Assay [1] concerns the target T1, Corticotropin-releasing factor receptor 2/Corticotropin-releasing factor-binding protein (Homo sapiens, UniProt P24387+Q13324).
T1 sequence (Q13324 whole entry): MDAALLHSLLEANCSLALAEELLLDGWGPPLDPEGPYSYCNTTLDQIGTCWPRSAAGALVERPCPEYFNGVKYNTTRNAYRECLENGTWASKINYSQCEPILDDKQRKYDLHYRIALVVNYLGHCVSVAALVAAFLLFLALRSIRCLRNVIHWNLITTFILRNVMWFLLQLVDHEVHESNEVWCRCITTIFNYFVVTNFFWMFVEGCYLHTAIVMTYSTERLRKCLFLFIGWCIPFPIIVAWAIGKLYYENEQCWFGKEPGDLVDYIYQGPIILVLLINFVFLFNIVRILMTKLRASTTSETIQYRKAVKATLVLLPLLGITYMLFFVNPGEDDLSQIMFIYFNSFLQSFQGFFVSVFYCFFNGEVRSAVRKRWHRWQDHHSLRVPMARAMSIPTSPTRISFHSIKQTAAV
T1 sequence (P24387 whole entry): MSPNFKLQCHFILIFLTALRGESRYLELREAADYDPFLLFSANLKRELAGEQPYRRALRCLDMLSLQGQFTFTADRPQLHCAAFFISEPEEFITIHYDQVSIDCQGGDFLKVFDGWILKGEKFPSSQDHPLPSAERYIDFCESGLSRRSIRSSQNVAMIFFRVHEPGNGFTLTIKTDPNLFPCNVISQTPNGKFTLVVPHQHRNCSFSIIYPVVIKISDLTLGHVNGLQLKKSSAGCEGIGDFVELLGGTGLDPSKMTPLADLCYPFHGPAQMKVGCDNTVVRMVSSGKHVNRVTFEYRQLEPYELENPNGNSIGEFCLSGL
In words: Dose Response confirmation of uHTS hits for small molecule antagonists of the CRF-binding protein and CRF-R2 receptor complex. The following applies: read-out: IC50_Mean. It counts as functional.

Assay [2] concerns the target T1, Corticotropin-releasing factor receptor 2/Corticotropin-releasing factor-binding protein. In words: activators of CRF receptor 2 with binding protein – uHTS hits, confirmation (AID 602473). The following applies: read-out: EC50_Mean. It counts as functional.
Assay [3] can be described thus: inhibitors of firefly luciferase expression or activity, dose response, H4 neuroglioma cells, luminescence (AID 1990). It counts as functional, cell-based.
A short description of assay [4]: Luminescence Cell-Based Dose Response HTS to Identify Inhibitors of 5'UTR Stem-Loop Driven Prion Protein mRNA Translation in H4 Neuroglioblastoma Cells. [Related pubchem assays: 1827 (Project Summary), 1813 (Primary HTS)]. It counts as functional.
A short description of assay [5]: inhibitors of SNCA 5'UTR-driven reporter translation, confirmation, H4 neuroglioma cells, luminescence (AID 1988). It counts as functional, cell-based.
Assay [6] is described as follows: Shn3 3'UTR reporter inhibitors, dose response, cell-based, Clone20 osteoblasts, firefly luciferase, cherry-picked (AID 624132).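 Further: firefly luciferase luminescence from reporter carrying the Shn3 3'UTR in osteoblasts.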 It counts as functional.
Assay [7] can be described thus: HepG2 cell cytotoxicity, dose response, cytotoxicity control for Shn3 inhibitor project, CellTiter-Glo, cherry-picked (AID 624134). It counts as functional, cell-based.
The nature of assay [8]: control 3'UTR Renilla luciferase suppression, dose response, counter-screen for Shn3 inhibitor project, cell-based, Clone20-Shn3RL, cherry-picked (AID 624133). It counts as functional.
Assay [9] is described as follows: Luminescence Cell-Based Dose Confirmation HTS to Identify Activators of 5'UTR Stem-Loop Driven Alpha-Synuclein mRNA Translation in H4 Neuroglioblastoma Cells. [Related pubchem assays: 1829 (Project Summary), 1814 (Primary HTS)]. It counts as functional.
The nature of assay [10]: Luminescence Cell-Based Dose Response HTS to Identify Activators of Luciferase Translation or Activity in H4 […] Cells. [Related pubchem assays: 1829 (Project Summary), 1814 (Primary HTS)]. It counts as functional.
The test system of assay [11] is H4. In words: Luminescence Cell-Based Dose Response HTS to Identify Activators of 5'UTR Stem-Loop Driven Prion Protein mRNA Translation in H4 Neuroglioblastoma Cells. [Related pubchem assays: 1829 (Project Summary), 1814 (Primary HTS)]. It counts as functional. The following applies: Homo sapiens.
Assay [12] in a line: inhibitors of intracellular T. cruzi replication, confirmation, NIH3T3 host cells, beta-gal luminescence (AID 2044).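 Further: intracellular parasites grown in NIH/3T3 mouse fibroblasts as host cells; luminescent beta-galactosidase reporter signal from transgenic T. cruzi replicating inside host cells; inhibitors lower the luminescence signal.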 It counts as functional, cell-based.
The nature of assay [13]: cytotoxicity toward NIH3T3 fibroblasts, dose response, counter-screen, cell-based, ATP luminescence, mouse fibroblasts (AID 2010).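 Further: cells exposed to compound for about 90 hours before reading.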 It counts as functional.
In assay [14] the target is Luciferin 4-monooxygenase (Photinus pyralis, UniProt P08659). In words: firefly luciferase enzyme inhibitors, dose response, biochemical, luminescence (AID 1891).
Luciferin 4-monooxygenase, sequence (P08659 whole entry): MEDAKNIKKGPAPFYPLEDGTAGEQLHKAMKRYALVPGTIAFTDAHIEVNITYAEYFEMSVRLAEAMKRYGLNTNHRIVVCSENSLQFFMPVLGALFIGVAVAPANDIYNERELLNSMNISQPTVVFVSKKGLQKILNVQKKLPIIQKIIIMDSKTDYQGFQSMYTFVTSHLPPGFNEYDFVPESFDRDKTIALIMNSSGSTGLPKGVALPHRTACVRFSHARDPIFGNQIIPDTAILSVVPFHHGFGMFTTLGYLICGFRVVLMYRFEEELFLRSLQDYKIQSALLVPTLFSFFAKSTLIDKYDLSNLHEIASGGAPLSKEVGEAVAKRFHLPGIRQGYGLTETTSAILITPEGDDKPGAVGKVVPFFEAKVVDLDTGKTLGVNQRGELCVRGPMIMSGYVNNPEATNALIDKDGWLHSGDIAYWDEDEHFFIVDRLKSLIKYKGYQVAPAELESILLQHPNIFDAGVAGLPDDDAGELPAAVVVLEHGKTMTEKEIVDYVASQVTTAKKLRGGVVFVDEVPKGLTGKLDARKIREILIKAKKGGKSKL
A short description of assay [15]: Luminescence Cell-Based Dose Confirmation HTS to Identify Inhibitors of Platelet Dense Granule Release. [Related pubchem assays: 1663 (Primary HTS), 1678 (Summary of Project)]. It counts as functional.
The test system of assay [16] is Streptococcus sp. 'group A'. In words: growth inhibition of control SK(-) GAS strain, dose response, counter-screen for streptokinase expression inhibitor project, luminescence, kanamycin, BacTiterGlo, confirmation (AID 1900). It counts as functional, organism-based. (The purpose of a counterscreen is to sort out artefacts and off-target activity.)
In assay [17] the target is T2, Streptokinase A (Streptococcus pyogenes serotype M1, UniProt P10520).
T2 sequence (P10520 whole entry): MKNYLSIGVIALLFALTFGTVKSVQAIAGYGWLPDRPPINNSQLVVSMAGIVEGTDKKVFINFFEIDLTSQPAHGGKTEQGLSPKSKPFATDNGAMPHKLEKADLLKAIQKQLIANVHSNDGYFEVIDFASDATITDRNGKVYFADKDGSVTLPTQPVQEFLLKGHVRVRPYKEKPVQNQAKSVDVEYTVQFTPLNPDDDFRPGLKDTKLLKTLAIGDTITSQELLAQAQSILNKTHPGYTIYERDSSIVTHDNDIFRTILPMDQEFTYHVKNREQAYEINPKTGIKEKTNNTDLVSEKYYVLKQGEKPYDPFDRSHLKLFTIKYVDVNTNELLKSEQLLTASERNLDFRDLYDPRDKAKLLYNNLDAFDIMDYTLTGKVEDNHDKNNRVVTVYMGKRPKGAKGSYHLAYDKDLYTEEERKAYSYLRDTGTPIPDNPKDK
In words: S. pyogenes streptokinase expression inhibitors, potency, dose response, plasminogen activation absorbance, OD405 (AID 1914).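 Further: secreted streptokinase activity via plasminogen activation per viability signal from cell pellet.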 It counts as functional, Streptococcus pyogenes M1 GAS.

In assay [18] the test system is Streptococcus. In words: Group A Streptococcus viability loss, dose response, counter-screen for streptokinase expression inhibitor project, luminescence, BacTiterGlo (AID 1915).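 Further: potency for reduction of bacterial viability or growth.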 It counts as functional, organism-based.

`COc1ccc(NC(=O)CSc2nnc(N)s2)c([N+](=O)[O-])c1`: in assay [1], the IC50 is > 47.1 µM (inactive). Besides, the EC50 in [2] is > 53 µM (inactive).

As for `O=C(NCc1cc(C(F)(F)F)ccc1Cl)c1cccc2c1C(=O)c1ccc(N3CCCCC3)cc1S2(=O)=O`, in assay [2], the EC50 is 6.26 µM (active).

In the case of `O=C(NCCCN1CCOCC1)C(=O)N/N=C/c1c2ccccc2cc2ccccc12`, the EC50 in [3] was 12.2 µM (active); in assay [4], 13.9 µM (active); in [5], 9.11 µM (active).

On to `C[C@H]1CN=C(N(C)C)N1CC1CCC(C(C)(C)C)CC1` (stereo partly drawn), for which the AC50 was 2.27 µM (active) in assay [6], 41.5 µM (active) in assay [7] and 20.3 µM (active) in assay [8].

On to `COC(=O)c1cc(NC(=O)c2c(Cl)nc3sccn23)cc(C(=O)OC)c1`, for which the EC50 in assay [3] was 12.3 µM (active); in [4], 10.6 µM (active); in assay [5], 9.13 µM (active).

Take `C/C=C(/C)C(=O)Nc1cccc(C2=NOC3(C2)C[C@H](C(N)=O)N(C(=O)COc2ccc(Cl)cc2)C3)c1` (stereo partly drawn): the EC50 is > 120 µM (not active) in assay [3], 87.6 µM (active) in assay [4] and > 120 µM (not active) in [5].

As for `COc1cccc(/C=N/Nc2nnc(C)n2N)c1OCc1ccccc1Cl`, the EC50 in [3], in [4] and in assay [5] was > 120 µM (not active) throughout.

In the case of `Cc1ccsc1C1Nc2ccccc2-c2nc3ccccc3n21` (stereo not drawn), the results for the EC50 in [9], in assay [10] and in assay [11] were 24.3 µM (active), 60.7 µM (active) and 26.1 µM (active), respectively.

As to `Brc1ccc2c(c1)OCCOCCOc1cc(Br)ccc1OCCOCCOCCO2`, the EC50 in [3] was 14.1 µM (active); in assay [4] it was 103 µM (active); in assay [5] it was > 120 µM (not active); in [12], 1.04 µM (active); in [13] it was > 60 µM (not active).

On to `O=C(Cn1cc(C(=O)C(F)(F)F)c2ccccc21)NCc1ccco1`, for which the EC50 in assay [14] and in [15] was > 112 µM (not active) throughout.

Turning to `COc1ccc(CC(N)c2csc(NC(=O)Nc3cccc(C(F)(F)F)c3)n2)cc1` (stereo not drawn), the results for the AC50 in assay [6], in assay [7] and in assay [8] were 8.4 µM (active), 11 µM (active) and 7.68 µM (active), respectively.

For `CN(Cc1cccs1)C(=O)Cc1csc(-c2ccccc2)n1`, the EC50 in assay [9] is 32 µM (active); in assay [10] it was 10.1 µM (active); in assay [11], 15.9 µM (active).

`Cc1ccc(-c2nn(-c3ccccc3)cc2/C=N/n2c(S)nnc2-c2ccncc2)cc1`: the EC50 is > 120 µM (not active) in assay [9], 34.3 µM (active) in [10] and 34.1 µM (active) in [11].

For the compound `CC(Oc1ccc(F)cc1)C(=O)Nc1ccccc1N1CCCCC1` (stereo not drawn), the EC50 in assay [16] was 11.8 µM (active); in assay [17], 10.3 µM (active); in assay [14], 27.3 µM (active); in assay [15], 21 µM (active); in [18], 19.9 µM (active).

In the case of `COc1ccc(OC)c(C(=O)Cn2nnc(-c3ccc(N4CCOCC4)cc3)n2)c1`, the EC50 in assay [9], in assay [10] and in [11] was > 120 µM (not active) each time.

As to `C=CCNc1nc(N)c([N+](=O)[O-])c(NC2CCCCC2)n1`, the EC50 in [3] is 28.9 µM (active); in assay [4] it was 0.21 µM (active); in assay [5], > 120 µM (not active).

For `CC(C)c1ccc(NCCC(=O)c2cccs2)cc1`, the EC50 in [9] was 4.14 µM (active); in assay [10], 33.1 µM (active); in assay [11], 61.8 µM (active).

Take `CCOC(=O)C1=C(CNCc2ccc(F)cc2)NC(=O)NC1c1cccc([N+](=O)[O-])c1` (stereo not drawn): the EC50 in assay [14] and in assay [15] was > 112 µM (not active) each time.

Consider `CC1CCCCN1C(=O)CSc1nc2ccsc2c(=O)n1Cc1ccccn1` (stereo not drawn), for which the EC50 was 46.3 µM (active) in assay [9], 5.86 µM (active) in assay [10] and 9.84 µM (active) in assay [11].

With `Cc1ccc(C(=O)NC(=S)NCC2CCCO2)cc1Br` (stereo not drawn), the EC50 in assay [9] was 11 µM (active); in assay [10] it was 21 µM (active); in assay [11], 45.5 µM (active).

Regarding `c1ccc2c(c1)oc1c(NCC3CCCO3)ncnc12` (stereo not drawn), the figures for the EC50 in [9], in assay [10] and in assay [11] were 8.39 µM (active), 19 µM (active) and 7.09 µM (active), respectively.

Take `Cc1ccc(C(=O)N/N=C/c2ccc(-c3cccc(C(F)(F)F)c3)o2)cn1`: the EC50 was > 120 µM (not active) in [3], > 120 µM (not active) in assay [4] and 11.9 µM (active) in assay [5].

With `CCc1c(C)nc2ncnn2c1Nc1ccc(C(C)=O)cc1`, the EC50 in [9] is 34.4 µM (active); in [10] it was 92 µM (active); in assay [11], 57.4 µM (active).

For the compound `COc1ccc(N2CCN(S(=O)(=O)c3c(C)nc4sccn4c3=O)CC2)cc1`, the EC50 in [14] and in assay [15] was > 112 µM (not active) throughout.

On to `COc1ccc(CCN2CCCC(CN(C)C(=O)c3cc(C)oc3C)C2)cc1` (stereo not drawn), for which the EC50 in [9] was 41.5 µM (active); in [10], 31.9 µM (active); in assay [11], 32.7 µM (active); in [12] it was 0.149 µM (active); in assay [13], > 60 µM (not active).

Consider `O=C(Nc1cccc(-c2nc3ccccc3o2)c1)c1ccc(N2C(=O)C3C4C=CC(C4)C3C2=O)cc1` (stereo not drawn), for which the EC50 was 10.5 µM (active) in assay [3], > 120 µM (not active) in [4] and 9.98 µM (active) in assay [5].

As to `CCOC(=O)N1CCN(C(=O)CCNS(=O)(=O)c2ccc3c(c2)c(=O)n(C)c(=O)n3C)CC1`, the EC50 in assay [9], in [10] and in assay [11] was > 120 µM (not active) in each case.

For `Cc1c(C(=O)NC(=S)NCC(C)C)oc2ccccc12`, the figures for the EC50 in [9] and in assay [10] were 27.2 µM (active) and 63.2 µM (active), respectively.

Consider `O=C1CCCC/C1=C/Nc1ccc2c(c1)OCO2`, for which the figures for the EC50 in assay [9], in [10] and in [11] were 8.5 µM (active), 7.34 µM (active) and > 120 µM (not active), respectively.

On to `CCCCc1ccc(Nc2nc(N3CCOCC3)nc(N3CCOCC3)n2)cc1`, for which the EC50 in assay [14] and in assay [15] was > 112 µM (not active) throughout.
